Assay results: patent publication US11912686B2 (Gilead Sciences, Inc., priority 2020, dated 2024)

These molecules were tested against human LPAR1 (Homo sapiens (Human), UniProt Q92633) (assay: LPAR1 intracellular calcium mobilization assay (antagonist mode, FLIPR)). Settings: CHO-K1 EDG2 cells expressing human LPAR1, LPA 18:2 at EC80 (100 nM), test compound 0.5 nM to 10 μM.
Type: cell-based

Chain of human LPAR1 (Q92633 whole entry): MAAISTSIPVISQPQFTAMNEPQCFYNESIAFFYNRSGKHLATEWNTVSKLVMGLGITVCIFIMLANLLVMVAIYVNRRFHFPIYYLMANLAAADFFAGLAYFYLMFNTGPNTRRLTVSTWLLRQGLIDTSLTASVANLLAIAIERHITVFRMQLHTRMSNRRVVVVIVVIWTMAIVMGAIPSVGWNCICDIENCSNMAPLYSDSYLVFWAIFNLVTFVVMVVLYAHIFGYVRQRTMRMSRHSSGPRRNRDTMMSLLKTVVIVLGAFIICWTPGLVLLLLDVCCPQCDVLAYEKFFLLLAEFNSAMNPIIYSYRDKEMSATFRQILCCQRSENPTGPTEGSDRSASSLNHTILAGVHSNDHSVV

Row | EC50 [nM] | SMILES
1 | 41.2 | C[C@@H](OC(=O)Nc1c(-c2ccc(NC(=O)[C@H]3C[C@@H]3C)cn2)nnn1C)c1cc(F)cnc1F (mixture of isomers) [Compound 207, (R)-1-(2,5-difluoropyridin-3-yl)ethyl (1-methyl-4-(5-((1RS,2RS)-2-methylcyclopropane-1-carboxamido)pyridin-2-yl)-1H-1,2,3-triazol-5-yl)carbamate]
2 | 21.1 | C[C@@H](OC(=O)Nc1c(-c2ccc(NC(=O)[C@@H]3C[C@H]3CF)cn2)nnn1C)c1cc(F)cnc1F (mixture of isomers) [Compound 208, (R)-1-(2,5-difluoropyridin-3-yl)ethyl (4-(5-((1RS,2RS)-2-(fluoromethyl)cyclopropane-1-carboxamido)pyridin-2-yl)-1-methyl-1H-1,2,3-triazol-5-yl)carbamate]
3 | 17.7 | C[C@@H](OC(=O)Nc1c(-c2ccc(NC(=O)[C@@H]3C[C@H]3C(F)(F)F)cn2)nnn1C)c1cc(F)cnc1F (mixture of isomers) [Compound 209, (R)-1-(2,5-difluoropyridin-3-yl)ethyl (1-methyl-4-(5-((1RS,2RS)-2-(trifluoromethyl)cyclopropane-1-carboxamido)pyridin-2-yl)-1H-1,2,3-triazol-5-yl)carbamate]
4 | 243 | CO[C@@H]1C[C@H]1C(=O)Nc1ccc(-c2nnn(C)c2NC(=O)O[C@H](C)c2cc(F)cnc2F)nc1 (mixture of isomers) [Compound 210, (R)-1-(2,5-difluoropyridin-3-yl)ethyl (4-(5-((1RS,2RS)-2-methoxycyclopropane-1-carboxamido)pyridin-2-yl)-1-methyl-1H-1,2,3-triazol-5-yl)carbamate]
5 | 37.4 | C[C@@H](OC(=O)Nc1c(-c2ccc(NC(=O)[C@@H]3C[C@H]3[N+](=O)[O-])cn2)nnn1C)c1cc(F)cnc1F (mixture of isomers) [Compound 211, (R)-1-(2,5-difluoropyridin-3-yl)ethyl (1-methyl-4-(5-((1RS,2RS)-2-nitrocyclopropane-1-carboxamido)pyridin-2-yl)-1H-1,2,3-triazol-5-yl)carbamate]
6 | 22.4 | C[C@@H](OC(=O)Nc1c(-c2ccc(NC(=O)[C@@H]3C[C@H]3C(F)F)cn2)nnn1C)c1cc(F)cnc1F (mixture of isomers) [Compound 216, (R)-1-(2,5-difluoropyridin-3-yl)ethyl (4-(5-((1RS,2RS)-2-(difluoromethyl)cyclopropane-1-carboxamido)pyridin-2-yl)-1-methyl-1H-1,2,3-triazol-5-yl)carbamate]
7 | 58.1 | C[C@@H](OC(=O)Nc1c(-c2ccc(NC(=O)[C@@H]3C[C@H]3c3ccncc3)cn2)nnn1C)c1cc(F)cnc1F (mixture of isomers) [Compound 217, (R)-1-(2,5-difluoropyridin-3-yl)ethyl (1-methyl-4-(5-((1RS,2RS)-2-(pyridin-4-yl)cyclopropane-1-carboxamido)pyridin-2-yl)-1H-1,2,3-triazol-5-yl)carbamate]
8 | 19.3 | C[C@@H](OC(=O)Nc1c(-c2ccc(NC(=O)[C@@H]3C[C@H]3c3ccc(F)nc3)cn2)nnn1C)c1cc(F)cnc1F (mixture of isomers) [Compound 237, (R)-1-(2,5-difluoropyridin-3-yl)ethyl (4-(5-((1RS,2RS)-2-(6-fluoropyridin-3-yl)cyclopropane-1-carboxamido)pyridin-2-yl)-1-methyl-1H-1,2,3-triazol-5-yl)carbamate]
9 | 52.5 | C[C@@H](OC(=O)Nc1c(-c2ccc(NC(=O)[C@@H]3C[C@H]3c3ccncc3Cl)cn2)nnn1C)c1cc(F)cnc1F (mixture of isomers) [Compound 238, (R)-1-(2,5-difluoropyridin-3-yl)ethyl (4-(5-((1RS,2RS)-2-(3-chloropyridin-4-yl)cyclopropane-1-carboxamido)pyridin-2-yl)-1-methyl-1H-1,2,3-triazol-5-yl)carbamate]
10 | 13 | C[C@@H](OC(=O)Nc1c(-c2ccc(NC(=O)[C@H]3[C@H](c4ccccc4)C3(F)F)cn2)nnn1C)c1cc(F)cnc1F (mixture of isomers) [Compound 247, (R)-1-(2,5-difluoropyridin-3-yl)ethyl (4-(5-((1RS,3RS)-2,2-difluoro-3-phenylcyclopropane-1-carboxamido)pyridin-2-yl)-1-methyl-1H-1,2,3-triazol-5-yl)carbamate]
11 | 29.8 | C[C@@H](OC(=O)Nc1c(-c2ccc(NC(=O)[C@H]3[C@H](C4CC4)C3(F)F)cn2)nnn1C)c1cc(F)cnc1F (mixture of isomers) [Compound 248, (R)-1-(2,5-difluoropyridin-3-yl)ethyl (4-(5-((1RS,2SR)-3,3-difluoro-[1,1′-bi(cyclopropane)]-2-carboxamido)pyridin-2-yl)-1-methyl-1H-1,2,3-triazol-5-yl)carbamate]
12 | 71.8 | C[C@@H](OC(=O)Nc1c(-c2ccc(NC(=O)[C@@H]3C[C@H]3C#N)cn2)nnn1C)c1cc(F)cnc1Cl (mixture of isomers) [Compound 285, (R)-1-(2-chloro-5-fluoropyridin-3-yl)ethyl (4-(5-((1RS,2RS)-2-cyanocyclopropane-1-carboxamido)pyridin-2-yl)-1-methyl-1H-1,2,3-triazol-5-yl)carbamate]
13 | 864 | C[C@@H](OC(=O)Nc1c(-c2ccc(NC(=O)[C@H]3[C@@H]4CS(=O)(=O)C[C@@H]43)cn2)nnn1C)c1cc(F)cnc1F (racemic) [Compound 229, (R)-1-(2,5-difluoropyridin-3-yl)ethyl (4-(5-((1RS,5SR,6SR)-3,3-dioxido-3-thiabicyclo[3.1.0]hexane-6-carboxamido)pyridin-2-yl)-1-methyl-1H-1,2,3-triazol-5-yl)carbamate]
14 | 26.7 | C[C@@H](OC(=O)Nc1c(-c2ccc(NC(=O)[C@H]3[C@@H]4CC(F)(F)C[C@@H]43)cn2)nnn1C)c1cc(F)cnc1F (racemic) [Compound 230, (R)-1-(2,5-difluoropyridin-3-yl)ethyl (4-(5-((1RS,5SR,6SR)-3,3-difluorobicyclo[3.1.0]hexane-6-carboxamido)pyridin-2-yl)-1-methyl-1H-1,2,3-triazol-5-yl)carbamate]
15 | 154 | C[C@@H](OC(=O)Nc1c(-c2cnc(NC(=O)C3(C#N)CC3)cn2)nnn1C)c1cccnc1Cl [Compound 8, (R)-1-(2-chloropyridin-3-yl)ethyl (4-(5-(1-cyanocyclopropane-1-carboxamido)pyrazin-2-yl)-1-methyl-1H-1,2,3-triazol-5-yl)carbamate]
16 | 541 | CC(OC(=O)Nc1c(-c2ccc(NC(=O)C(F)(F)F)cn2)nnn1C)c1cc(Br)cnc1F (stereo not shown) [Compound 12, 1-(5-bromo-2-fluoropyridin-3-yl)ethyl (1-methyl-4-(5-(2,2,2-trifluoroacetamido)pyridin-2-yl)-1H-1,2,3-triazol-5-yl)carbamate]
17 | 1200 | CC(=O)Nc1ccc(-c2nnn(C)c2NC(=O)O[C@H](C)c2cc(Cl)cnc2F)nc1 [Compound 14, (R)-1-(5-chloro-2-fluoropyridin-3-yl)ethyl (4-(5-acetamidopyridin-2-yl)-1-methyl-1H-1,2,3-triazol-5-yl)carbamate]
18 | 452 | CC(=O)Nc1ccc(-c2nnn(C)c2NC(=O)O[C@H](C)c2cc(F)cnc2Cl)nc1 [Compound 15, (R)-1-(2-chloro-5-fluoropyridin-3-yl)ethyl (4-(5-acetamidopyridin-2-yl)-1-methyl-1H-1,2,3-triazol-5-yl)carbamate]

Row | SMILES | EC50 [nM]
19 | C[C@@H](OC(=O)Nc1c(-c2ccc(NC(=O)C(F)(F)F)cc2)nnn1C)c1cccc(F)c1 [Compound 1, (R)-1-(3-fluorophenyl)ethyl (1-methyl-4-(4-(2,2,2-trifluoroacetamido)phenyl)-1H-1,2,3-triazol-5-yl)carbamate] | 6520
20 | C[C@@H](OC(=O)Nc1c(-c2ncc(NC(=O)C3(C#N)CC3)cn2)nnn1C)c1cccnc1Cl [Compound 2, [(1R)-1-(2-chloro-3-pyridyl)ethyl] N-[5-[5-[(1-cyanocyclopropanecarbonyl)amino]pyrimidin-2-yl]-3-methyl-triazol-4-yl]carbamate] | 953
21 | CNC(=O)Nc1ccc(-c2nnn(C)c2NC(=O)O[C@H](C)c2ccccc2Cl)cn1 [Compound 3] | 10000
22 | CC(=O)Nc1ccc(-c2nnn(C)c2NC(=O)O[C@H](C)c2cccnc2Cl)nc1F [Compound 5, [(1R)-1-(2-chloro-3-pyridyl)ethyl] N-[5-(5-acetamido-6-fluoro-2-pyridyl)-3-methyl-triazol-4-yl]carbamate] | 1510
23 | CC(=O)Nc1ccc(-c2nnn(C)c2NC(=O)O[C@H](C)c2cccnc2Cl)cc1 [Compound 6, (R)-1-(2-chloropyridin-3-yl)ethyl (4-(4-acetamidophenyl)-1-methyl-1H-1,2,3-triazol-5-yl)carbamate] | 1860
24 | COC(=O)Nc1ccc(-c2nnn(C)c2NC(=O)O[C@H](C)c2cccnc2Cl)cc1 [Compound 7, (R)-1-(2-chloropyridin-3-yl)ethyl (4-(4-((methoxycarbonyl)amino)phenyl)-1-methyl-1H-1,2,3-triazol-5-yl)carbamate] | 315
25 | CC(=O)Nc1cnc(-c2nnn(C)c2NC(=O)O[C@H](C)c2cccnc2Cl)c(F)c1 [Compound 9, (R)-1-(2-chloropyridin-3-yl)ethyl (4-(5-acetamido-3-fluoropyridin-2-yl)-1-methyl-1H-1,2,3-triazol-5-yl)carbamate] | 2700
26 | CC(=O)Nc1cnc(-c2nnn(C)c2NC(=O)O[C@H](C)c2cccnc2Cl)cc1F [Compound 10, (R)-1-(2-chloropyridin-3-yl)ethyl (4-(5-acetamido-4-fluoropyridin-2-yl)-1-methyl-1H-1,2,3-triazol-5-yl)carbamate] | 1020
27 | C[C@@H](OC(=O)Nc1c(-c2ccc(NC(=O)OC(C)(C)C)cn2)nnn1C)c1cccnc1Cl [Compound 11, (R)-1-(2-chloropyridin-3-yl)ethyl (4-(5-((tert-butoxycarbonyl)amino)pyridin-2-yl)-1-methyl-1H-1,2,3-triazol-5-yl)carbamate] | 731
28 | CC(OC(=O)Nc1c(-c2ccc(NC(=O)C(F)(F)F)cn2)nnn1C)c1cc(Br)cnc1Cl (stereo not shown) [Compound 13, 1-(5-bromo-2-chloropyridin-3-yl)ethyl (1-methyl-4-(5-(2,2,2-trifluoroacetamido)pyridin-2-yl)-1H-1,2,3-triazol-5-yl)carbamate] | 148
